Consider one molecule from patent publication US11987581B1 (KING FAISAL UNIVERSITY, priority 2023, dated 2024).

For the test, the target named is T1, recombinant human CK2 (RRββ-holoenzyme) (Homo sapiens, UniProt P68400).
T1 construct: purchased Millipore
Put plainly: CK2 Kinase Assay (radiometric, [γ-33P] ATP). The class given is biochemical. The settings on record: final ATP concentration 15 μM; 10 min at 30° C.; eight concentrations; read-out: protein kinase CK2 activity IC50. As for the experimental part:
CK2 Kinase Assay was conducted using the protocol as described in Pierre F. et al; J. Med. Chem. 2011, 54, 635-654. The tested compounds in aqueous solution were added at a volume of 10 μL to a reaction mixture comprising 10 μL of assay dilution buffer (ADB; 20 mM MOPS, pH 7.2, 25 mM β-glycerol phosphate, 5 mM EGTA, 1 mM sodium orthovanadate, and 1 mM dithiothreitol), 10 μL of substrate peptide (RRRDDDSDDD, dissolved in ADB at a concentration of 1 mM), 10 μL of recombinant human CK2 (RRββ-holoenzyme, 25 ng dissolved in ADB; Millipore). Reactions were initiated by the addition of 10 μL of ATP solution (90% 75 mMMgCl2, 75 μM ATP (final ATP concentration: 15 μM) dissolved in ADB; 10% [γ-33P] ATP (stock 1 mCi/100 μL; 3000 Ci/mmol (Perkin-Elmer) and maintained for 10 min at 30° C. The reactions were quenched with 100 μL of 0.75% phosphoric acid and then transferred to and filtered through a phosphor cellulose filter plate (Millipore). After washing each well five times with 0.75% phosphoric acid, the plate was dried under vacuum for 5 min and, following the addition of 15 μL of scintillation fluid to each well, the residual radioactivity was measured using a Wallac luminescence counter. The IC50 values were derived from eight concentrations of test inhibitors.

T1 sequence (P68400 whole entry): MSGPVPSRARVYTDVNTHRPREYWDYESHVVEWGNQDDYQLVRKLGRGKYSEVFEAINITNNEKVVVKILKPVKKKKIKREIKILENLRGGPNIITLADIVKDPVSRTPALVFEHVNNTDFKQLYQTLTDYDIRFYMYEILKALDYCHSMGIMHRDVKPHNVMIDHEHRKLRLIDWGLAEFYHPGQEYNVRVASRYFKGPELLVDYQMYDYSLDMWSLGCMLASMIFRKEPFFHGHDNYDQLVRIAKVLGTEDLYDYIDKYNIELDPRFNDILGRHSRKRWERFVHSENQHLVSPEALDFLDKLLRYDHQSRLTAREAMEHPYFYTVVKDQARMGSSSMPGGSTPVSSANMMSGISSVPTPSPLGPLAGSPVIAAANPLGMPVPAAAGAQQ
T1 sequence (P67870 whole entry partner): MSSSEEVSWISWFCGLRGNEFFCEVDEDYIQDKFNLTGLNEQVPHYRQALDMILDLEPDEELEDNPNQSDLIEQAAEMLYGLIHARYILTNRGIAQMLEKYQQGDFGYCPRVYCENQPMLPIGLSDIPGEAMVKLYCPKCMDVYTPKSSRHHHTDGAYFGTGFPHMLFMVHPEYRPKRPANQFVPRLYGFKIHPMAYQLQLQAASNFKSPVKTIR

`O=C(O)c1cn2c(Nc3cccc(Cl)c3)nc3ccncc3c2n1` [Compound 1]: the 50% inhibitory concentration (IC50) (as a rule, the concentration at which inhibition is half-maximal) is 41 nM.
